Laboratory results from the supplement of paper PMC10307832.

Assays:
Experiment in all cases: relative viability (nuclei count vs DMSO), 5 days (fraction); higher = more cells survive
[1] = compound: C[C@@H](N)c1ccc(C(=O)Nc2ccnc3[nH]ccc23)cc1 + CC(=O)Nc1cccc(-n2c(=O)n(C3CC3)c(=O)c3c(Nc4ccc(I)cc4F)n(C)c(=O)c(C)c32)c1 [Trametinib] (partner 0.02 µM)
Method in brief: (§1)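 Relative viability is defined as nuclei in treated wells over nuclei in vehicle wells. Duplicate plates were run and medians reported. Lung cancer cell lines in 1536-well plates were dosed by pin tool one day after seeding, with one drug or with a fixed anchor-drug dose plus five library-drug doses (not always all listed) in √10 steps, and nuclei were counted after 5 days.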

[2] = compound: C[C@@H](N)c1ccc(C(=O)Nc2ccnc3[nH]ccc23)cc1 + Cc1nc(Nc2ncc(C(=O)Nc3c(C)cccc3Cl)s2)cc(N2CCN(CCO)CC2)n1 [Dasatinib] (partner 0.075 µM)
Method in brief: as §1

[3] = compound: C[C@@H](N)c1ccc(C(=O)Nc2ccnc3[nH]ccc23)cc1 + CS(=O)(=O)CCNCc1ccc(-c2ccc3ncnc(Nc4ccc(OCc5cccc(F)c5)c(Cl)c4)c3c2)o1 [Lapatinib] (partner 2 µM)
Method in brief: as §1

[4] = compound: C1CNCCC1C2=CC(=NN2)C3=CC=NC=C3 + CS(=O)(=O)CCNCc1ccc(-c2ccc3ncnc(Nc4ccc(OCc5cccc(F)c5)c(Cl)c4)c3c2)o1 [Lapatinib] (partner 2 µM)
Method in brief: as §1

Row | Cell Line | relative viability ([1]; first compound 0.04 µM) | relative viability ([1]; first compound 0.1265 µM) | relative viability ([1]; first compound 0.4 µM) | relative viability ([1]; first compound 1.265 µM) | relative viability ([1]; first compound 4 µM) | relative viability ([2]; first compound 0.04 µM) | relative viability ([2]; first compound 0.1265 µM) | relative viability ([2]; first compound 0.4 µM) | relative viability ([2]; first compound 1.265 µM) | relative viability ([2]; first compound 4 µM) | relative viability ([3]; first compound 0.04 µM) | relative viability ([3]; first compound 0.1265 µM) | relative viability ([3]; first compound 0.4 µM) | relative viability ([3]; first compound 4 µM) | relative viability ([4]; first compound 0.08 µM) | relative viability ([4]; first compound 0.8 µM) | relative viability ([4]; first compound 2.53 µM) | relative viability ([4]; first compound 8 µM) | relative viability ([3]; first compound 1.265 µM)
1 | SW 900 | 0.888 | 0.861 | 1.04 | 1.14 | 0.993 | 0.722 | 0.549 | 0.606 | 0.44 | 0.488 |  |  |  |  |  |  |  |  | 
2 | NCI-H1944 | 0.479 | 0.412 | 0.467 | 0.503 | 0.402 | 0.183 | 0.192 | 0.182 | 0.183 | 0.159 | 0.759 | 0.841 | 0.769 | 0.699 | 0.76 | 0.775 | 0.819 | 0.801 | 
3 | NCI-H727 | 0.41 | 0.432 | 0.404 | 0.466 | 0.467 | 0.628 | 0.529 | 0.71 | 0.479 | 0.725 | 0.863 | 0.957 | 1.02 | 0.989 | 0.717 | 0.847 | 1.01 | 0.981 | 0.513
4 | NCI-H1650 | 0.579 | 0.786 | 0.648 | 0.554 | 0.609 | 0.42 | 0.402 | 0.428 | 0.39 | 0.311 | 0.701 | 0.63 | 0.772 | 0.834 | 0.561 | 0.751 | 0.821 | 0.736 | 0.155
5 | HCC-827 |  | 0.703 | 0.758 | 0.763 | 0.653 | 0.411 | 0.466 | 0.433 | 0.46 | 0.267 | 0.233 | 0.203 | 0.168 | 0.196 | 0.207 | 0.174 | 0.22 | 0.166 | 0.246
6 | HCC-366 | 0.345 | 0.332 | 0.388 | 0.399 | 0.375 | 0.544 | 0.621 | 0.483 |  | 0.508 | 1 | 1.15 | 1.11 | 1.04 | 0.864 | 1.13 | 1.04 | 1.04 | 
7 | HARA | 0.918 | 1.01 | 0.804 | 0.549 | 0.936 |  | 0.287 | 0.225 |  | 0.237 | 0.829 | 0.904 | 0.79 | 0.702 | 0.755 | 0.874 | 0.736 | 0.701 | 0.803
8 | NCI-H322M | 0.625 | 0.61 | 0.701 | 0.617 | 0.684 | 0.242 | 0.253 | 0.266 |  | 0.318 | 0.807 | 0.63 | 0.665 | 0.824 | 0.545 | 0.555 | 0.592 | 0.524 | 
9 | LXF-289 | 0.661 | 0.676 | 0.708 | 0.797 | 0.588 | 0.105 | 0.234 | 0.185 | 0.11 | 0.116 | 0.968 | 0.891 | 0.959 | 0.851 | 0.934 | 0.937 | 0.864 | 0.91 | 1.02
10 | PC-3 [JPC-3] | 0.656 | 0.695 | 0.732 | 0.651 | 0.549 | 0.951 | 1 | 1.02 | 0.901 | 0.82 | 0.538 | 0.545 | 0.505 | 0.536 | 0.426 | 0.446 | 0.499 | 0.471 | 0.529
11 | CAL-12T | 0.34 | 0.408 | 0.38 | 0.447 | 0.409 | 0.52 | 0.524 | 0.461 | 0.316 | 0.338 | 0.801 | 0.811 | 0.886 | 0.875 | 0.714 | 0.613 | 0.811 | 0.666 | 
12 | COR-L 105 | 0.441 | 0.518 | 0.449 | 0.417 | 0.458 | 0.247 | 0.317 | 0.372 | 0.241 | 0.216 | 0.305 | 0.355 | 0.376 | 0.364 | 0.32 | 0.34 | 0.389 | 0.363 | 0.257
13 | NCI-H2347 | 0.283 | 0.337 | 0.366 | 0.304 | 0.175 | 0.54 | 0.314 | 0.374 |  | 0.574 | 0.833 | 0.959 | 0.933 | 0.868 | 0.956 | 0.735 | 0.977 | 0.996 | 0.347
14 | NCI-H2126 | 0.515 | 0.561 | 0.534 | 0.637 | 0.676 | 0.72 | 0.664 | 0.622 | 0.626 | 0.619 | 0.825 | 0.866 | 0.764 | 0.966 | 0.738 | 0.752 | 0.812 | 0.741 | 0.859
